Holding throughout (type): cell-based
The subject of one assay is Botrytis cinerea. The experiment in a line: Ex vivo mycelial growth inhibition, growth rate method. The note with it: 1 mg/mL. The source says:
(§1) 3-(3',4'-methylenedioxy phenyl)-N-n-propyl acrylamide (at a purity of 99%), 3-(3',4'-methylenedioxy phenyl)-piperidine acrylate (at a purity of 99%), the control agents, 96.5% of chlorothalonil technical (non-systemic broad-spectrum fungicide), 97.2% of carbendazim technical (systemic broad-spectrum fungicide), 97.0% of procymidone technical (systemic fungicide), 96.0% of dimethomorphtechnical ((E,Z)-4-[3-(4-chlorphenyl)3-(3,4-dimethoxy phenyl)acryloyl]morpholine, systemic fungicide), 97.0% of azoxystrobin technical (systemic broad-spectrum fungicide).
(§2) The inhibition of samples for testing on the mycelial growth of plant pathogenic fungi for testing is determined with a growth rate method. 3-(3',4'-methylenedioxy phenyl)-N-n-propyl acrylamide, 3-(3',4'-methylenedioxy phenyl)-piperidine acrylate and five control agents are dissolved with dimethyl sulfoxide (DMSO), then formulated at 5-7 concentrations of different gradients for test following the trial test results, with the same concentration of DMSO as the control solvent, each treatment in triplicate. Fungal cakes with a diameter of 4 mm are taken from the edge of the colony, inoculated into the center of a PDA plate containing different agents of different concentrations and the DMSO control, with one piece of fungal cake inoculated in each plate (with a diameter of […]), and incubated in a constant temperature incubator at a temperature of 22±1.5°C. 7 days later (10-20 days may be needed for some pathogenic fungi), the diameter of the colony is measured with a cross over method according to the mycelial growth profile of the control pathogenic fungi, then the inhibition rate of mycelial growth is calculated.
(§3) The computational formula is as below: the inhibition rate of mycelial growth (%) = [(the diameter of the control colony - the diameter of the treated colony)/the diameter of the control colony] × 100.
(§4) The inhibition results of each agent at a concentration of 1 mg/mL on the mycelial growth of plant pathogenic fungi are shown in Tables 1 and 2.

The test system of a further assay is C. gossypii. The description is as above. The note with it: for Average Diameter of the Colony: C. gossypii; for inhibition at 1000 µg/mL: Colletotrichum gossypii, read-out: Inhibition Rate.
Source text: as §1, §2, §3, §4

Another assay relates to Exserohilum turcicum. The assay is described as above. The note with it: 1 mg/mL.
Source text: as §1, §2, §3, §4

The subject of another assay is F. oxysporum f. sp. lini. The description is as above. The note with it: 1 mg/mL; for inhibition at 1000 µg/mL: Fusarium oxysporum.
Source text: as §1, §2, §3, §4

Assay [1] deals with F. oxysporum f. sp. vasinfectum. Described as above. The note with it: 1 mg/mL; for inhibition at 1000 µg/mL: Fusarium oxysporum.
Source text: as §1, §2, §3, §4

For another assay, the system named is Mycosphaerlla melonis. The description is as above. The note with it: 1 mg/mL.
Source text: as §1, §2, §3, §4

Another assay relates to Phytophthora capsici. The description is as above. The note with it: Phytophthora capsici; 1 mg/mL.
Source text: as §1, §2, §3, §4

The next assay relates to Sclerotinia sclerotiorum. Described as above. The note with it: 1 mg/mL.
Source text: as §1, §2, §3, §4

Another assay relates to F. graminearum. The experiment in a line: microbe, parasite or virus in culture. The note with it: for Average Diameter of the Colony: F. graminearum, 1 mg/mL; for inhibition at 1000 µg/mL: Fusarium graminearum, read-out: Inhibition Rate.
The subject of a further assay is Pyricularia grisea. The experiment in a line: microbe, parasite or virus in culture. The note with it: for Average Diameter of the Colony: 1 mg/mL; for inhibition at 1000 µg/mL: read-out: Inhibition Rate.
The next assay deals with Phytophthora infestans. Put plainly: microbe, parasite or virus in culture. The note with it: for Average Diameter of the Colony: 1 mg/mL; for inhibition at 1000 µg/mL: read-out: Inhibition Rate.

Broadly, the inhibition is the percentage by which the read-out fell short of the control.

Like-named read-outs stand apart in the source and are kept apart here.

For the molecule `CO/C=C(/C(=O)OC)c1ccccc1Oc1cc(Oc2ccccc2C#N)ncn1` [Azoxystrobin, azoxystrobin], the “Average Diameter of the Colony” value in the assay with Botrytis cinerea came to 4.33 cm; with C. gossypii (1 mg/mL), 5.37 cm; with Exserohilum turcicum it was 6.50 cm; in the assay on F. oxysporum f. sp. lini it was 5.93 cm; in [1], 3.03 cm; in the assay on Mycosphaerlla melonis, 3.93 cm. Further, the “Average Diameter of the Colony” value with Phytophthora capsici is reported as 6.70 cm; in the assay with Sclerotinia sclerotiorum, 4.40 cm; in the assay on F. graminearum it was 6.23 cm; in the assay on Pyricularia grisea it was 4.67 cm; in the assay with Phytophthora infestans, 0.00 cm. In addition, the inhibition at 1000 µg/mL with Botrytis cinerea amounted to 51.9%; in the assay on C. gossypii, 40.3%; in the assay on Exserohilum turcicum, 27.8%; in the assay with F. oxysporum f. sp. lini, 34.1%; in assay [1], 66.3%; in the assay on Mycosphaerlla melonis, 56.3%. Moreover, the inhibition at 1000 µg/mL was 25.6% in the assay with Phytophthora capsici; 51.1% with Sclerotinia sclerotiorum; 30.8% in the assay on F. graminearum; 48.1% in the assay with Pyricularia grisea; 100% in the assay on Phytophthora infestans.
For the molecule `COc1ccc(C(=CC(=O)N2CCOCC2)c2ccc(Cl)cc2)cc1OC` [Dimethomorph, (E,Z)-4-[3-(4-chlorphenyl)3-(3,4-dimethoxyphenyl)acryloyl]morpholine], the “Average Diameter of the Colony” value in the assay with Botrytis cinerea is reported as 2.33 cm; in the assay on C. gossypii (1 mg/mL) it was 3.93 cm; in the assay on Exserohilum turcicum it was 6.50 cm; with F. oxysporum f. sp. lini, 6.27 cm; in [1], 6.03 cm; in the assay on Mycosphaerlla melonis, 2.13 cm. Also, the “Average Diameter of the Colony” value is listed as 0.00 cm in the assay with Phytophthora capsici; 4.77 cm with Sclerotinia sclerotiorum; 6.23 cm in the assay on F. graminearum; 6.67 cm in the assay on Pyricularia grisea; 0.00 cm in the assay with Phytophthora infestans. The inhibition at 1000 µg/mL in the assay on Botrytis cinerea worked out at 74.1%; in the assay on C. gossypii (C. cossypii, 1 mg/mL), 56.3%; in the assay with Exserohilum turcicum, 27.8%; in the assay with F. oxysporum f. sp. lini it was 30.3%; in [1] it was 33%; in the assay with Mycosphaerlla melonis it was 76.3%. In addition, the inhibition at 1000 µg/mL with Phytophthora capsici was found to be 100%; in the assay with Sclerotinia sclerotiorum, 47%; in the assay with F. graminearum it was 30.8%; in the assay on Pyricularia grisea, 25.9%; in the assay with Phytophthora infestans, 100%.

The values above are taken from EP3818828A1 (priority 2019, dated 2021).
